Tests used:
Type in all cases: cell-based
[1] = molecular target: T1, human TLR7 (Homo sapiens, UniProt Q9NYK1); assay: TLR7 inhibition reporter assay (HEK-Blue cells, SEAP reporter, gardiquimod stimulation); conditions: HEK-Blue cells overexpressing human TLR7, SEAP reporter, gardiquimod 7.5 μM
T1 construct: host or cells: HEK-Blue cells (HEK293-derived reporter line)
T1 sequence (Q9NYK1 27-1049): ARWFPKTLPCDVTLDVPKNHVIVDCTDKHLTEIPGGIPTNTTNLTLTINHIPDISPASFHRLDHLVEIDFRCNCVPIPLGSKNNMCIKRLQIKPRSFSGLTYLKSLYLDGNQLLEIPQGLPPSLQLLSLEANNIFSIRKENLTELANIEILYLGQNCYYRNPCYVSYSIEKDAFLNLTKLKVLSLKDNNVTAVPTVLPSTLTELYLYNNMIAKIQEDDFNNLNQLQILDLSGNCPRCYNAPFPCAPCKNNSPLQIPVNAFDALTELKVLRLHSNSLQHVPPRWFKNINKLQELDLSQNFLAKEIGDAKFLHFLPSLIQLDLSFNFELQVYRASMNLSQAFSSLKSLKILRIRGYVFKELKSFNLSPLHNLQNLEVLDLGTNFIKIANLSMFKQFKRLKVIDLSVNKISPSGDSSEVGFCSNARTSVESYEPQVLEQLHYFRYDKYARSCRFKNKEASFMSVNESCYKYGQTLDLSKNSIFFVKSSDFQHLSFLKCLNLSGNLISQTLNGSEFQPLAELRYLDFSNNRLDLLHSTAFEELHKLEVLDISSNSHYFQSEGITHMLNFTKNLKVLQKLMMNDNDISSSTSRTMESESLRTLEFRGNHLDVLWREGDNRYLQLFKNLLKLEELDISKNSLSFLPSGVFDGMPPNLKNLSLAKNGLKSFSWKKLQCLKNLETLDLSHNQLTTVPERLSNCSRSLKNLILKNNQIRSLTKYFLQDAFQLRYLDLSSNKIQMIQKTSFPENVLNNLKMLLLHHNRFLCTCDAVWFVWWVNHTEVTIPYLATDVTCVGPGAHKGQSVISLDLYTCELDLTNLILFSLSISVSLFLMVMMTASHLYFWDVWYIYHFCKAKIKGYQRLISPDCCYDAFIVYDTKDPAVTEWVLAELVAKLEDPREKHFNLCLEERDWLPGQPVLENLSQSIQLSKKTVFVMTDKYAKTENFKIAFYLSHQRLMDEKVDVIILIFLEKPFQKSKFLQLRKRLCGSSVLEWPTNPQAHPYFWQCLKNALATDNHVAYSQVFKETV
Summary of the method: (§1)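 Agonists (final): TLR7 gardiquimod 7.5 μM; TLR8 R848 15.9 μM; TLR9 ODN2006 5 nM. HEK-Blue reporter cells, 30 min RT compound pre-incubation, 0.05 nM–50 μM dose range, 22 h at 37 °C, colorimetric SEAP detection medium. % inhibition relative to agonist+DMSO and known-inhibitor wells.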

[2] = molecular target: T2, human TLR8 (Homo sapiens, UniProt Q9NR97); assay: TLR8 inhibition reporter assay (HEK-Blue cells, SEAP reporter, R848 stimulation); conditions: HEK-Blue cells overexpressing human TLR8, SEAP reporter, R848 15.9 μM
T2 construct: host or cells: HEK-Blue cells (HEK293-derived reporter line)
T2 sequence (Q9NR97 27-1041): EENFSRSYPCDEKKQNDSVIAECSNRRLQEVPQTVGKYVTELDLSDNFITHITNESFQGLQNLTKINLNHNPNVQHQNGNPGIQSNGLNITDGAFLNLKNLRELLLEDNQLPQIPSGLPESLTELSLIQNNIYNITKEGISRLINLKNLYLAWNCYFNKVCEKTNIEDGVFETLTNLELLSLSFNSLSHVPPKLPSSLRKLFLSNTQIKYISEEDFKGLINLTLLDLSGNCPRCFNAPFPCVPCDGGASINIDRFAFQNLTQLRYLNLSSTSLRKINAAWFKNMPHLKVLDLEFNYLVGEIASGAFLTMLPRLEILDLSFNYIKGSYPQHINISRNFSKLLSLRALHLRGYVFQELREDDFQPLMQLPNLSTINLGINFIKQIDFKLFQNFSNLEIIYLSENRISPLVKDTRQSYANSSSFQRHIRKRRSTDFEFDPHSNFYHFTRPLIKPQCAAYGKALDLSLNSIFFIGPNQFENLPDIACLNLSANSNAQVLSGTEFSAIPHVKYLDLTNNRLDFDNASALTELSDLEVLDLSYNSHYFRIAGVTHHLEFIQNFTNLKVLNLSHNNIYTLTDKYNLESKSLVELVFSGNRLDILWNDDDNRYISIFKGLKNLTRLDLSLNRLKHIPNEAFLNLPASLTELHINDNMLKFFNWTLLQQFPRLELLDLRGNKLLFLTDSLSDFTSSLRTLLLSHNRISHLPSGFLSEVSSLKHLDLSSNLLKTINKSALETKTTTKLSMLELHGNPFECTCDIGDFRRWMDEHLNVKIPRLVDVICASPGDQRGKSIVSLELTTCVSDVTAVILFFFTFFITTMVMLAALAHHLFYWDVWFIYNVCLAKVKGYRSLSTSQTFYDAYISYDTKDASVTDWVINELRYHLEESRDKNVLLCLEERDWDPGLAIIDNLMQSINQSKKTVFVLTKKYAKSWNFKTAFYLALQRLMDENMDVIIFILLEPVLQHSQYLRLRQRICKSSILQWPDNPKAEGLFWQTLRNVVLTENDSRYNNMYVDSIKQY
Summary of the method: as §1

[3] = molecular target: T3, human TLR9 (Homo sapiens, UniProt Q9NR96); assay: TLR9 inhibition reporter assay (HEK-Blue cells, SEAP reporter, ODN2006 stimulation); conditions: HEK-Blue cells overexpressing human TLR9, SEAP reporter, ODN2006 5 nM
T3 construct: host or cells: HEK-Blue cells (HEK293-derived reporter line)
T3 sequence (Q9NR96 26-1032): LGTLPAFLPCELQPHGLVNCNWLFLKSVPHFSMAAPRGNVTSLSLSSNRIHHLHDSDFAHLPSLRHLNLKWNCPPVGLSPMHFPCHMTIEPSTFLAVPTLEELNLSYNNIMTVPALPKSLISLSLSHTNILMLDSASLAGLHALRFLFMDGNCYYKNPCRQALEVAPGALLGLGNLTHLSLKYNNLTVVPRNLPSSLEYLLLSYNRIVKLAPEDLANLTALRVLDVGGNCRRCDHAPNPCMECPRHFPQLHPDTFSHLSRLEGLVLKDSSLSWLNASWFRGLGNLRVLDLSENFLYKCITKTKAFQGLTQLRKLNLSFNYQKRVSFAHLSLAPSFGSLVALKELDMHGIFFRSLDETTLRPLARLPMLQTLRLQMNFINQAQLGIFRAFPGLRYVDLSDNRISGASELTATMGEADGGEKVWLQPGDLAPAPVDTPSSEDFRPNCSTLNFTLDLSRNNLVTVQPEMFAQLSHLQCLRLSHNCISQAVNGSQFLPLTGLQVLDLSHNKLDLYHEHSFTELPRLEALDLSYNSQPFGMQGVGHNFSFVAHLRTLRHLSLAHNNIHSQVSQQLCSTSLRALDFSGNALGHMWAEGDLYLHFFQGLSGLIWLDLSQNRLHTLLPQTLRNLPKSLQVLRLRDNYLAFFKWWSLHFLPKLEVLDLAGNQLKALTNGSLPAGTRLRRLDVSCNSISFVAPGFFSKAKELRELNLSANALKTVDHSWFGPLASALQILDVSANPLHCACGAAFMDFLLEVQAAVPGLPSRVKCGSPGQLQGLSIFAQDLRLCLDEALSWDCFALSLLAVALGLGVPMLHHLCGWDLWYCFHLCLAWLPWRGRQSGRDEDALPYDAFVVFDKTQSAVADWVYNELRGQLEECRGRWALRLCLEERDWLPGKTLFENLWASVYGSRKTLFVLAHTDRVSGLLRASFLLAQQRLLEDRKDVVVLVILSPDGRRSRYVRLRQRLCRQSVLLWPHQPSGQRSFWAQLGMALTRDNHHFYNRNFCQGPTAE
Summary of the method: as §1

SMILES | IC50 [1] [nM] | IC50 [2] [nM] | IC50 [3] [nM]
CNCCN1CCC(c2ccc3[nH]c(-c4ccc5[nH]ccc5c4)c(C)c3c2)CC1 [Example 667, N-methyl-2-(4-(3-methyl-1H,1′H-[2,5′-biindol]-5-yl)piperidin-1-yl)ethan-1-amine] | 1000 to 50000 | 1000 to 50000 | 100 to 1000
CCc1c(-c2ccc3ncc(C)n3n2)[nH]c2ccc(C3CCNCC3)cc12 [Example 103, 6-(3-ethyl-5-(piperidin-4-yl)-1H-indol-2-yl)-3-methylimidazo[1,2-b]pyridazine] | 1000 to 50000 | 100 to 1000 | 1000 to 50000
CC(C)c1c(-c2nc3c(s2)CNCC3)[nH]c2ccc(C3CCNCC3)cc12 [Example 208, 2-(3-isopropyl-5-(piperidin-4-yl)-1H-indol-2-yl)-4,5,6,7-tetrahydrothiazolo[5,4-c]pyridine] | 1000 to 50000 | 1000 to 50000 | < 100
Cc1cc2cc(-c3[nH]c4ccc(C5CCN(CC(=O)N(C)C)CC5)cc4c3C(C)C)ccn2n1 [Example 323, 2-(4-(3-isopropyl-2-(2-methylpyrazolo[1,5-a]pyridin-5-yl)-1H-indol-5-yl)piperidin-1-yl)-N,N-dimethylacetamide] | 100 to 1000 | 1000 to 50000 | 1000 to 50000
Cc1cc2nnnn2cc1-c1[nH]c2ccc(C3CCN(CC(=O)N(C)C)CC3)cc2c1C(C)C [Example 314, 2-(4-(3-isopropyl-2-(7-methyltetrazolo[1,5-a]pyridin-6-yl)-1H-indol-5-yl)piperidin-1-yl)-N,N-dimethylacetamide] | < 100 | < 100 | 1000 to 50000
Cc1cc(-c2[nH]c3ccc(C4CCN(CC(C)(C)O)CC4)cc3c2C(C)C)cc2cccnc12 [Example 771, 1-(4-(3-isopropyl-2-(8-methylquinolin-6-yl)-1H-indol-5-yl)piperidin-1-yl)-2-methylpropan-2-ol] | < 100 | < 100 | 1000 to 50000
CC(C)c1c(-c2ccnc3[nH]ncc23)[nH]c2cc(F)c(C3CCNCC3)cc12 [Example 253, 4-(6-fluoro-3-isopropyl-5-(piperidin-4-yl)-1H-indol-2-yl)-1H-pyrazolo[3,4-b]pyridine] | < 100 | < 100 | 100 to 1000

More lines, now with the values ahead:

IC50 [1] [nM] | IC50 [2] [nM] | IC50 [3] [nM] | SMILES
< 100 | < 100 | 100 to 1000 | CNC(=O)CN1CCC(c2ccc3[nH]c(-c4cc(OC)n5ncnc5c4)c(C(C)C)c3c2)CC1 [Example 332, 2-(4-(3-isopropyl-2-(5-methoxy-[1,2,4]triazolo[1,5-a]pyridin-7-yl)-1H-indol-5-yl)piperidin-1-yl)-N-methylacetamide]
< 100 | < 100 | 1000 to 50000 | CCc1c(-c2ccnc3[nH]ncc23)[nH]c2ccc(C3CCN(C(=O)C4CCN(C)CC4)CC3)cc12 [Example 648, (4-(3-ethyl-2-(1H-pyrazolo[3,4-b]pyridin-4-yl)-1H-indol-5-yl)piperidin-1-yl)(1-methylpiperidin-4-yl)methanone]
< 100 | < 100 | 1000 to 50000 | Cc1c(-c2[nH]c3ccc(C4CCN(CC(C)(C)O)CC4)cc3c2C(C)C)cn2ccnc2c1Cl [Example 772, 1-(4-(2-(8-chloro-7-methylimidazo[1,2-a]pyridin-6-yl)-3-isopropyl-1H-indol-5-yl)piperidin-1-yl)-2-methylpropan-2-ol]
< 100 | < 100 | 1000 to 50000 | CC(C)c1c(-c2ccc(C#N)c3ncccc23)[nH]c2ccc(C3CCN(CC(C)(C)O)CC3)cc12 [Example 766, 5-(5-(1-(2-hydroxy-2-methylpropyl)piperidin-4-yl)-3-isopropyl-1H-indol-2-yl)quinoline-8-carbonitrile]
< 100 | < 100 | 100 to 1000 | CNC(=O)c1cn2cc(-c3[nH]c4ccc(C5CCN(C(=O)CN(C)C)CC5)cc4c3C(C)C)cc(C)c2n1 [Example 495, 6-(5-(1-(dimethylglycyl)piperidin-4-yl)-3-isopropyl-1H-indol-2-yl)-N,8-dimethylimidazo[1,2-a] pyridine-2-carboxamide]
< 100 | < 100 | 1000 to 50000 | CC(C)c1c(-c2ccc3ncnn3n2)[nH]c2ccc(C3CCN(C4CCOCC4)CC3)cc12 [Example 683, 6-(3-isopropyl-5-(1-(tetrahydro-2H-pyran-4-yl)piperidin-4-yl)-1H-indol-2-yl)-[1,2,4]triazolo[1,5-b]pyridazine]
< 100 | < 100 | 1000 to 50000 | CNC(=O)CN1CCC(c2ccc3[nH]c(-c4ccc(C#N)c5ncccc45)c(C(C)C)c3c2)CC1 [Example 371, 2-(4-(2-(8-cyanoquinolin-5-yl)-3-isopropyl-1H-indol-5-yl)piperidin-1-yl)-N-methylacetamide]
< 100 | 100 to 1000 | 1000 to 50000 | Cc1cc(-c2[nH]c3ccc(C4CCN(C5COC5)CC4)cc3c2C(C)C)c2ccccc2n1 [Example 725, 4-(3-isopropyl-5-(1-(oxetan-3-yl)piperidin-4-yl)-1H-indol-2-yl)-2-methylquinoline]

From patent US11739098B2 (BRISTOL-MYERS SQUIBB COMPANY, priority 2017, dated 2023)
